# Data: ChEMBL document CHEMBL1201862, “PubChem BioAssay data set” (2004)
# The source made the active and inactive calls.
# Tests used:
# [1] = target: 72 kDa type IV collagenase (Homo sapiens, UniProt P08253); assay: Dose Response validation of uHTS RPN11 inhibitor hits using a MMP-2 Fluorescence assay.; type: functional
# [2] = target: Prothrombin (Bos taurus, UniProt P00735); assay: thrombin inhibition, dose response, biochemical, fluorescence polarization, uHTS hits (AID 602369); type: functional
# [3] = target: 26S proteasome non-ATPase regulatory subunit 14 (Homo sapiens, UniProt O00487); assay: inhibition of proteasome subunit RPN11 – biochemical, fluorescence polarization, uHTS hits, confirmation (AID 602368); type: functional
# [4] = target: T1, Long-chain-fatty-acid--AMP ligase FadD28 (Mycobacterium tuberculosis, UniProt P9WQ59); assay: Fluorescence polarization aasay to screen for inhibitors that compete for the binding of FadD28 to a bisubstrate Measured in Biochemical System Using Plate Reader - 2147-01_Inhibitor_Dose_CherryPick_Activity.; type: functional, Mycobacterium tuberculosis H37Rv
# T1 sequence (P9WQ59 whole entry): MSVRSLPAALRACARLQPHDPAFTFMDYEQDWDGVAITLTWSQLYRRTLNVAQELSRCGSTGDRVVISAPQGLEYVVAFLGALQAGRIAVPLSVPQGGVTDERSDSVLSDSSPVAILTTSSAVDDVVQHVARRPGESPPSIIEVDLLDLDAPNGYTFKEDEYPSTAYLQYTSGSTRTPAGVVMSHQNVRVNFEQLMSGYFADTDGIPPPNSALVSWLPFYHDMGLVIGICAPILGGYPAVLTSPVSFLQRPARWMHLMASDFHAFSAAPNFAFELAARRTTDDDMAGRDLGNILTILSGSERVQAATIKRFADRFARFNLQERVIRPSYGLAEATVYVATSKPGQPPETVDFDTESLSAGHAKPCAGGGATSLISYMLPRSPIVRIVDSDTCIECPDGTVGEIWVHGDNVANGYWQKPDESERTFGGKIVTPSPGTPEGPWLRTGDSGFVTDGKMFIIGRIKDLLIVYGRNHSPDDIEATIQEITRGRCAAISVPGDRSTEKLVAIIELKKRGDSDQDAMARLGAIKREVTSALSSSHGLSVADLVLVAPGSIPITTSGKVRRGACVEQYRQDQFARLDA
# [5] = target: T2, Corticotropin-releasing factor receptor 2/Corticotropin-releasing factor-binding protein (Homo sapiens, UniProt P24387+Q13324); assay: activators of CRF receptor 2 with binding protein – uHTS hits, confirmation (AID 602473); type: functional; details: read-out: EC50_Mean
# T2 sequence (Q13324 whole entry): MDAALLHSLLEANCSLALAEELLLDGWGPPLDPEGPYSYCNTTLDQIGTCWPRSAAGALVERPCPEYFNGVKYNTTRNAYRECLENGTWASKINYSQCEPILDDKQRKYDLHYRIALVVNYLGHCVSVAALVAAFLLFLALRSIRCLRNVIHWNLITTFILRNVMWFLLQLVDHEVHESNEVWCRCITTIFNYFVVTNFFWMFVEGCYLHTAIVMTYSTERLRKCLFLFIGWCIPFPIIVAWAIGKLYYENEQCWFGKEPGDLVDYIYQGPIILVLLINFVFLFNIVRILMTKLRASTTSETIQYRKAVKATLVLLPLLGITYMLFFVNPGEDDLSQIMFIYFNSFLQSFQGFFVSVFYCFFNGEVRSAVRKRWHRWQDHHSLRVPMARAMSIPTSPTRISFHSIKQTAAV
# T2 sequence (P24387 whole entry): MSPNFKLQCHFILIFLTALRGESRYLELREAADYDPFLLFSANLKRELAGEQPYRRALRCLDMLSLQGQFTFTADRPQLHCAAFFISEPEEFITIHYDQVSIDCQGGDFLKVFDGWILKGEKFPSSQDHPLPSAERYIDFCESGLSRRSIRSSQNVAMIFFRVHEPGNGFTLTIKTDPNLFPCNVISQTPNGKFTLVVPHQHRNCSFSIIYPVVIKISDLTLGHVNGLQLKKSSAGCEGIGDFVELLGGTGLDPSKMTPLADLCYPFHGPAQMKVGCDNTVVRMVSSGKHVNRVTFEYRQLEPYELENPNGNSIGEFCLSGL
# [6] = target: T2, Corticotropin-releasing factor receptor 2/Corticotropin-releasing factor-binding protein; assay: Dose Response confirmation of uHTS hits for small molecule antagonists of the CRF-binding protein and CRF-R2 receptor complex.; type: functional; details: read-out: IC50_Mean
# [7] = CRF-BP/CRF-R2 complex antagonists, dose response, cell-based, uHTS hits, 384-well (AID 651639); type: functional, Homo sapiens; details: read-out: IC50_Mean
# [8] = target: T3, Apoptotic protease-activating factor 1 (Homo sapiens, UniProt O14727); type: functional
# T3 sequence (O14727 whole entry): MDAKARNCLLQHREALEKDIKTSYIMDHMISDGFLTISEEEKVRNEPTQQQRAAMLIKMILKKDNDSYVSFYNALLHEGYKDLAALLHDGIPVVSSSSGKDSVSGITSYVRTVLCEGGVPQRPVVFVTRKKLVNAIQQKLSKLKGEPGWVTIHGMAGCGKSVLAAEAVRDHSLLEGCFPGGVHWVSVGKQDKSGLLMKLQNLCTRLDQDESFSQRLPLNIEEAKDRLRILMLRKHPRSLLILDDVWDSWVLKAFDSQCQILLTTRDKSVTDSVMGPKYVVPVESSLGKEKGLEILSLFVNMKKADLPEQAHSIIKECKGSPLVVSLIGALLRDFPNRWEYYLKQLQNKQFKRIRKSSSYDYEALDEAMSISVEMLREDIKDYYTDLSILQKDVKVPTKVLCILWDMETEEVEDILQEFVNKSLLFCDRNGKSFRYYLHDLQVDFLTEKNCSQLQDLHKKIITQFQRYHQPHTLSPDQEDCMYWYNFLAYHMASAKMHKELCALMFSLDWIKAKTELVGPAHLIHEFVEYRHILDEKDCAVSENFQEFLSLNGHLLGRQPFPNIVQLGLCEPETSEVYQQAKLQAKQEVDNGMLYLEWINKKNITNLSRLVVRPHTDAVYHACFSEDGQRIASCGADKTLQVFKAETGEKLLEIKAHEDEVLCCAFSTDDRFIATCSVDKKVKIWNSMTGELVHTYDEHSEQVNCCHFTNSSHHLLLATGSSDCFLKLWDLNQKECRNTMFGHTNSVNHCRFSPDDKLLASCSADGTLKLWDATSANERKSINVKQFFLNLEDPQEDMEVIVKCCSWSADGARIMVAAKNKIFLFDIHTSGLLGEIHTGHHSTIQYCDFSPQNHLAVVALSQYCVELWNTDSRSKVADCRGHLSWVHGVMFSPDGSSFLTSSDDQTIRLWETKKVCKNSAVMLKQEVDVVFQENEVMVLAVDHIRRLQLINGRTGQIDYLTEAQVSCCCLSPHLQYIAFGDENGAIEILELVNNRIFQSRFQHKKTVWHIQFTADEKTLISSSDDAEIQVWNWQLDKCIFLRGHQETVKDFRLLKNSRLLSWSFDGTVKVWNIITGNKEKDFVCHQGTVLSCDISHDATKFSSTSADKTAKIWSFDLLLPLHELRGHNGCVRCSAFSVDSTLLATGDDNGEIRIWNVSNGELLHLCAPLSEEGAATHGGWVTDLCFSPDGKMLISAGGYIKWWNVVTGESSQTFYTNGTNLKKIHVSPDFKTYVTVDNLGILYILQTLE
# [9] = microbe, parasite or virus in culture; type: functional; details: Mycobacterium tuberculosis
# [10] = HEp-2 cell cytotoxicity, dose response, cytotoxicity control for RSV inhibitor project, HTS (AID 2410); type: functional; details: human respiratory syncytial virus
# [11] = inhibitors of clade B AD8 Env fusion, dose response, cell-based, cherry-pick (AID 652062); type: functional;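 also: luciferase signal from cell-cell fusion driven by HIV-1 clade B AD8 Env; potency is for inhibitors of fusion seen as a drop in luminescence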
# [12] = ZM109 Env clade C HIV-1 fusion inhibitors, dose response, HeLa effector, CEM target cells, luciferase, cherry-pick (AID 652058); type: functional, cell-based
# [13] = inhibitors of HIV Env-driven cell fusion, dose response, cherry-pick (AID 652057); type: functional, cell-based
# [14] = off-target signal loss in HeLa-CEM21 co-culture – HeLa F-luc CTL cells, cherry-picked, counter-screen for HIV-1 Env fusion inhibitor project, dose response (AID 652040); type: functional, cell-based;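 also: potency for signal decrease marking cytotoxic or nonspecific inhibition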
# [15] = target: T4, Estrogen receptor (Homo sapiens, UniProt P03372);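 also: potency for inhibiting coactivator peptide recruitment to the receptor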
# T4 sequence (P03372 whole entry): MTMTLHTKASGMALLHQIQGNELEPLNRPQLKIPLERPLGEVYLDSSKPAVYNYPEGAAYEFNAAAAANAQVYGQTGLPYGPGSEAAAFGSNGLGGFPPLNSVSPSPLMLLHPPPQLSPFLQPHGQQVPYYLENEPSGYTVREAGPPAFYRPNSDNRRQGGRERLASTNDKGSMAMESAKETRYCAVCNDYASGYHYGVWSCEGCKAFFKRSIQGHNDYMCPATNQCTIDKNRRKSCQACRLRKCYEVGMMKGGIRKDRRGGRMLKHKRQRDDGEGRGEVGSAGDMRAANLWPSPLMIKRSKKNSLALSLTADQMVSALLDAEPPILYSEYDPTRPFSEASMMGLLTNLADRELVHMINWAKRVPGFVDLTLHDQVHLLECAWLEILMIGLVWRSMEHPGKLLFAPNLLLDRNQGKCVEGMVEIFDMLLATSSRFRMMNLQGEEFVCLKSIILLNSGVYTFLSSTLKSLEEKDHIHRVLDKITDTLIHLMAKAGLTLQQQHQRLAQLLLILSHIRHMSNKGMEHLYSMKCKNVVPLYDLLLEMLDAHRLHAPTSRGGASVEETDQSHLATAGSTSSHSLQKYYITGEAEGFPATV
# [16] = test system: H9c2; assay: cells; type: functional, cell-based; details: Rattus norvegicus, H9c2, Myocardium;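 also: confirmatory concentration-response retest of ultra-high-throughput screening hits for modulation of myocardial damage; cell death induced by hydrogen peroxide oxidative stress; compound pretreatment for 60 min then peroxide exposure for 2 h; potency is for protecting the cells against peroxide damage rather than for killing them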
# [17] = target: Disintegrin and metalloproteinase domain-containing protein 17 (Homo sapiens, UniProt P78536); assay: exosite inhibitors of ADAM17, dose response, biochemical (AID 743260)
# [18] = HEK293 cell cytotoxicity, dose response, cytotoxicity control, plate reader, cherry-picked samples (AID 743446); type: functional, cell-based
# [19] = HepG2 cell cytotoxicity, dose response, cytotoxicity control, plate reader, cherry-pick, antagonist series (AID 743416); type: functional, cell-based
# [20] = MC4R antagonists, dose response, counter-screen for LGR2 antagonist project, cell-based, plate reader, cherry pick (AID 743444); type: functional;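 also: transfected HEK 293 cells stimulated with alpha-MSH peptide; potency of inhibitors of the alpha-MSH evoked signal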
# [21] = A549 cell cytotoxicity, dose response, cytotoxicity control, plate reader, cherry-pick, antagonist series (AID 743412); type: functional, cell-based
# [22] = LGR2 antagonists, dose response, cell-based, HEK293, CRE-luciferase reporter, cherry pick, set 2 (AID 743343); type: functional;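 also: transfected cells were stimulated with diluted bursicon conditioned medium after compound addition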
# [23] = inhibitors of intracellular T. cruzi replication, confirmation, NIH3T3 host cells, beta-gal luminescence (AID 2044); type: functional, cell-based;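 also: intracellular parasites grown in NIH/3T3 mouse fibroblasts as host cells; luminescent beta-galactosidase reporter signal from transgenic T. cruzi replicating inside host cells; inhibitors lower the luminescence signal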
# [24] = cytotoxicity toward NIH3T3 fibroblasts, dose response, counter-screen, cell-based, ATP luminescence, mouse fibroblasts (AID 2010); type: functional;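 also: cells exposed to compound for about 90 hours before reading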
# [25] = target: Large T antigen (Simian virus 40, UniProt P03070); type: functional, Betapolyomavirus macacae;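 also: Confirmatory-stage PubChem screen for compounds that inhibit SV40 T antigen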
# Large T antigen, sequence (P03070 whole entry): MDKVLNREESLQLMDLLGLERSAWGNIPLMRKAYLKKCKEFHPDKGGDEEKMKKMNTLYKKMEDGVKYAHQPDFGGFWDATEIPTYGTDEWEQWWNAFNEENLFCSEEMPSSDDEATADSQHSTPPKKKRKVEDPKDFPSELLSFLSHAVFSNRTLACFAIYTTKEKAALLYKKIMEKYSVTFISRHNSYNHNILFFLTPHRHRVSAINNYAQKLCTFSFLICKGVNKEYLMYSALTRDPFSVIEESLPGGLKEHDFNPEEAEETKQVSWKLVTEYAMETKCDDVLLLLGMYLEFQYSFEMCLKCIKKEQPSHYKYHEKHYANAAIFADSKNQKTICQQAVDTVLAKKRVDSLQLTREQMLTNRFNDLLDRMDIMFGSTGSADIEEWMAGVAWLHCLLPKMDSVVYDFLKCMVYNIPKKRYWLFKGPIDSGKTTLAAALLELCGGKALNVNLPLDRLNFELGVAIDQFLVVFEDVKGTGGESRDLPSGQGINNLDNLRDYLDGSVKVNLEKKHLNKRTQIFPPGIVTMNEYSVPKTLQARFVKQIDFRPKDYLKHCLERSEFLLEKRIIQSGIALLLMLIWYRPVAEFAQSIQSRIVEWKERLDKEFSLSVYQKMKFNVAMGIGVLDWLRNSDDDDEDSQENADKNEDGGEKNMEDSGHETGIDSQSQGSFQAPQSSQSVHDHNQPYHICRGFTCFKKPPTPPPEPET
# 72 kDa type IV collagenase, sequence (P08253 whole entry): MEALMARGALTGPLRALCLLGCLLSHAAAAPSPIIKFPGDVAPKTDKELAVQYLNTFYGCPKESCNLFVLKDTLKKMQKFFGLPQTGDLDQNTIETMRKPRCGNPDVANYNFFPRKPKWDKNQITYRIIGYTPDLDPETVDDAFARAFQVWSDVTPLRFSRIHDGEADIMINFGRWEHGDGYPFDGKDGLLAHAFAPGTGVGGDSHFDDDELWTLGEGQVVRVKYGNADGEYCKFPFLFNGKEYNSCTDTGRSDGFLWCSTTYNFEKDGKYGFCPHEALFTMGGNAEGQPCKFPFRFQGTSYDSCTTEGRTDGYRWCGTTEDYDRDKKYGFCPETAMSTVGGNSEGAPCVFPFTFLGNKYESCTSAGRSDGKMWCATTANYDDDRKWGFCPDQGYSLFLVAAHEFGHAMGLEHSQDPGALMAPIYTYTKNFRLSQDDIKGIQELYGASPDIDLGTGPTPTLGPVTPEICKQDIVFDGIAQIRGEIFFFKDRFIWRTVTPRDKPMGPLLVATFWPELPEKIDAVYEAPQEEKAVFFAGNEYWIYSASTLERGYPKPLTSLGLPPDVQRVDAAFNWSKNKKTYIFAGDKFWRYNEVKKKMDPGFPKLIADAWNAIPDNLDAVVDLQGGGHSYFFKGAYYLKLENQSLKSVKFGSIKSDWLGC
# 26S proteasome non-ATPase regulatory subunit 14, sequence (O00487 whole entry): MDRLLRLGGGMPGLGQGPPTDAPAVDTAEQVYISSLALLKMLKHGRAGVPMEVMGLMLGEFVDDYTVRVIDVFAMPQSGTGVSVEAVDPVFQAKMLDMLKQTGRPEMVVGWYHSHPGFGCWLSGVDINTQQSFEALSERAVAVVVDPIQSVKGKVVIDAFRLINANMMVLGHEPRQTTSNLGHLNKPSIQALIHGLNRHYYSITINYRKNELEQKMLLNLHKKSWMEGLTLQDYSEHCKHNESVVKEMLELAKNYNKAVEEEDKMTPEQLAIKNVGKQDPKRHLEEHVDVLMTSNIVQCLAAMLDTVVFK
# Disintegrin and metalloproteinase domain-containing protein 17, sequence (P78536 whole entry, the tested form may be a part): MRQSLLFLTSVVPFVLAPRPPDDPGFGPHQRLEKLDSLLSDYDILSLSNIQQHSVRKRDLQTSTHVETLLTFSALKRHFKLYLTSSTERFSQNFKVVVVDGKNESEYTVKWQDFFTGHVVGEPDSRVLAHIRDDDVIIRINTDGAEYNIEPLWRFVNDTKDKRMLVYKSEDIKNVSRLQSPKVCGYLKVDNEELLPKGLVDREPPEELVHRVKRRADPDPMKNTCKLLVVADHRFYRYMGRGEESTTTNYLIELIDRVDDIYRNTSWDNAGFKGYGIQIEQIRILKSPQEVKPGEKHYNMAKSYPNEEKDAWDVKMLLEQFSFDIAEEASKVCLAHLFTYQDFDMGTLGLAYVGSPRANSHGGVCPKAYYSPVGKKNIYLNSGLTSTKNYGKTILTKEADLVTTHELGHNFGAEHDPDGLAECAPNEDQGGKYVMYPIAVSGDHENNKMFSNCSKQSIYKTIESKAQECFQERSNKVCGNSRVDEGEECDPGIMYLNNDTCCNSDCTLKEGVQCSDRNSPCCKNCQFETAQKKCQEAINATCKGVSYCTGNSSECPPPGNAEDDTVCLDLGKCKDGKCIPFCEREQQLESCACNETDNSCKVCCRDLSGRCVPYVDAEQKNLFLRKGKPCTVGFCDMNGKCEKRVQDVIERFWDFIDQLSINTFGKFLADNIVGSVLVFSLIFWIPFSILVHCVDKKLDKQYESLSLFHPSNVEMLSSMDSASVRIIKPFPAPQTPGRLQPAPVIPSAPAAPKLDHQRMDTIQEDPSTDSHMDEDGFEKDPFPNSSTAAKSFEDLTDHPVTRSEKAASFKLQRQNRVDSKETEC
smiles,measurement,setting,value
NC(=O)CC(NC(=O)Cc1ccc(Cl)cc1)c1ccc(NC2CCCC2)c([N+](=O)[O-])c1 (stereo not given),IC50,[1],> 100 µM (inactive)
same,IC50,[2],38.8 µM (active)
same,IC50,[3],29.9 µM (active)
COc1cccc(C2CC(c3ccccc3)=NN2S(=O)(=O)c2ccccc2)c1OC (stereo not given),AC50,[4],62.2 µM (active)
O=C(COC(=O)c1cnc(Cl)c(Cl)c1)NCCC1=CCCCC1,EC50,[5],> 53 µM (inactive)
same,IC50,[6],7.16 µM (active)
same,IC50,[7],7.15 µM (active)
CN(CC(=O)Nc1ccc(Cl)c(C(F)(F)F)c1)C(=O)CC1Sc2ccccc2NC1=O (stereo not given),IC50,[8],33.6 µM (active)
COC(=O)C(NC(=O)c1ccc(OC)cc1)(Nc1ncc(S(=O)(=O)c2ccc([N+](=O)[O-])cc2)s1)C(F)(F)F (stereo not given),EC50,[5],> 53 µM (inactive)
same,CC50,[9],> 40 µM (active)
same,CC50,[10],13.4 µM (active)
same,IC50,[6],< 0.368 µM (active)
same,IC50,[7],2.58 µM (active)
O=C1CCCC2=C1C(c1ccc(Cl)cc1)C1C(=O)c3ccccc3C1=N2 (stereo not given),AC50,[4],> 100 µM (inactive)
same,CC50,[10],17 µM (active)
C=C1CCN([C@H](C(=O)OCc2ccc(C)cc2)C(C)C)S(=O)(=O)c2ccccc21,AC50,[11],13.2 µM (active)
same,AC50,[12],7.43 µM (active)
same,AC50,[13],3.35 µM (active)
same,AC50,[14],5.69 µM (active)
Brc1ccccc1-c1nnc(CSc2nnnn2-c2ccccc2)o1,EC50,[5],> 53 µM (inactive)
same,IC50,[15],> 50 µM (not active)
same,IC50,[6],8.93 µM (active)
same,IC50,[7],1.36 µM (active)
CCOC(=O)c1c(NC(=O)c2c(Br)cnn2C)c(C#N)nn1-c1ccccc1,EC50,[5],> 53 µM (inactive)
same,IC50,[6],43.9 µM (active)
same,IC50,[7],18.4 µM (active)
O=C1OCCN1C(=O)[C@H]1[C@H](c2ccc([N+](=O)[O-])cc2)C(c2ccccc2)=NN1c1ccc(Br)cc1,IC50,[16],15.2 µM (active)
same,IC50,[17],> 69.5 µM (inactive)
CC[C@@]12C(=O)N(c3ccc(C)cc3)C(=O)N1[C@H](c1ccc(Br)cc1)[C@@H]1C(=O)N(C(C)(C)C)C(=O)[C@@H]12,AC50,[11],1.06 µM (active)
same,AC50,[12],< 0.5 µM (active)
same,AC50,[13],0.301 µM (active)
same,AC50,[14],0.559 µM (active)
same,CC50,[10],> 50 µM (active)
COc1ccc(C(=O)NCc2ccc(C)cc2)cc1S(=O)(=O)N1CCCC1,AC50,[4],19 µM (active)
Cc1ccsc1/C=N\NC(=O)c1[nH]nc2c1CCC2,AC50,[18],16.4 µM (active)
same,AC50,[19],4.37 µM (active)
same,AC50,[20],7.75 µM (active)
same,AC50,[21],3.65 µM (active)
same,AC50,[22],6.59 µM (active)
CC(C)(C)c1nc2ccc(Cl)cn2c1CC1CCCCC1,AC50,[18],> 52 µM (inactive)
same,AC50,[19],> 52 µM (inactive)
same,AC50,[21],> 52 µM (inactive)
CC(=O)Nc1ccc(/N=C(/C2=C(O)c3ccccc3C2=O)c2ccccc2)cc1,AC50,[4],> 100 µM (inactive)
COc1ccc2c(c1)Cc1sc(NC(=O)c3cccs3)nc1-2,EC50,[23],2.01 µM (active)
same,IC50,[8],28.7 µM (active)
same,EC50,[24],> 60 µM (not active)
N#C/C(=C\c1ccc(O)c(O)c1)C(=O)N1CCc2ccccc21,IC50,[1],> 100 µM (inactive)
same,IC50,[25],11.9 µM (active)
same,IC50,[2],45.9 µM (active)
same,IC50,[3],0.798 µM (active)
